Columns and labels:
AT1R/FFluc fusion = AT1R/FFluc fusion endocytosis assay (reduction of luciferase signal); format: cell-based; conditions: varying concentrations, 15 minutes stimulation, FIG. 8
Procedure: For FFluc-V2R and FFluc-AT1R, plasmid DNA was transfected at 5 ng/well and 0.16 ng/well respectively. For transfection into HeLa cells, plasmid DNA was diluted 1:10 into carrier DNA yielding 5 ng/well plasmid DNA. […] 50 μL per well of luciferase substrate, D-luciferin, was then added to a final concentration of 0.2 mM D-luciferin, 2 mM MgCl2, and 2 mM ATP, and the cells incubated for 30 minutes at 37° C. For AT1R and V2R, 0.02 mM D-luciferin was used. For the luc2-B2AR experiment, 0.01 mM D-luciferin was used. For the FFLuc experiment using the D-luciferin derivative, PBI-3102, 0.02 mM substrate was used. Immediately prior to stimulation, luminescence was measured on a GLOMAX Multi Plus plate reader set to 0.5 s of integration time. Cells were then stimulated with the agonist indicated below ( 1/10 volume addition), and luminescence measured every two minutes in real-time. […] As controls, cells were treated with vehicle (Opti-MEM containing either DMSO or water). Normalized luminescence was determined by dividing the luminescence value (RLUs) of each sample by the luminescence from the same sample prior to stimulation (SEE FIG. 1A-D).
Cells were transfected with plasmid DNA encoding AT1R/FFluc fusion. […] Immediately prior to stimulation, luminescence was measured. Cells were then stimulated with varying concentrations of TRV120027 for 15 minutes, and luminescence detected. […]

[1] = biological target: beta2-adrenergic receptor (B2AR) fused to firefly luciferase (luc2) (UniProt P07550+P08659, E27Q/G16R/N119G/N50D); conditions: HEK293 cells, serially diluted agonist 30 minutes, trypsin/EDTA, D-luciferin without Mg/ATP, FIG. 2F
Sequence of beta2-adrenergic receptor (B2AR) fused to firefly luciferase (luc2) (P08659+P07550 fused P08659:N50D/P08659:N119G/P07550:G16R/P07550:E27Q): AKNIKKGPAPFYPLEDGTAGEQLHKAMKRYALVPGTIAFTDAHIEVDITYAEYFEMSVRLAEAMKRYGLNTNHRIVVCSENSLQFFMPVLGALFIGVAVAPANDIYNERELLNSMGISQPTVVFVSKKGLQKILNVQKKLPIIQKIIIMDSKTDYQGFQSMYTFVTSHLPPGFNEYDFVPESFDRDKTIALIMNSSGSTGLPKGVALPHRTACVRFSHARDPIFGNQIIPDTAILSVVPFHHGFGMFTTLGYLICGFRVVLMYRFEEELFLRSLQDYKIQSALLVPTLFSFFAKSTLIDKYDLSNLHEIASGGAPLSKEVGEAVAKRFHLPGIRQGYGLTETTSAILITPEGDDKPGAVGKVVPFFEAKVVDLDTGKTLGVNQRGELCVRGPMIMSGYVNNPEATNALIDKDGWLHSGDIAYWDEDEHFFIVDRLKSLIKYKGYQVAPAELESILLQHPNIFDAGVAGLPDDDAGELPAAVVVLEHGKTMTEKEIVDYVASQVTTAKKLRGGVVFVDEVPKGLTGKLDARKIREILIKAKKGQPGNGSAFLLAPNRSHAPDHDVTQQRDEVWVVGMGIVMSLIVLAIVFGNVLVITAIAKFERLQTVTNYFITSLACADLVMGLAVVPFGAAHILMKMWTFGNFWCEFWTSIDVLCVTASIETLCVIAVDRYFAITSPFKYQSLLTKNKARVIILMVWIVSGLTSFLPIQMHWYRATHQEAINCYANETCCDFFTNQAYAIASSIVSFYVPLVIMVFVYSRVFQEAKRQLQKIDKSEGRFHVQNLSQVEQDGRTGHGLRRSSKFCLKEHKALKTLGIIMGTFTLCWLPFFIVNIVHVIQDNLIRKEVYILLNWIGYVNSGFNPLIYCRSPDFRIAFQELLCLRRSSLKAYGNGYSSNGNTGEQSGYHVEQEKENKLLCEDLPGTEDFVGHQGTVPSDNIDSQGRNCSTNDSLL

Compound | internalization of AT1R/FFluc fusion proteins (normalized luminescence) (AT1R/FFluc fusion) | raw luminescence signal (endocytosis, gain of signal), negative control (B2AR) fusion proteins [1]
CC[C@H](C)[C@H](NC(=O)[C@H](Cc1ccc(O)cc1)NC(=O)[C@@H](NC(=O)[C@H](CCCNC(=N)N)NC(=O)CNC)C(C)C)C(=O)N[C@@H](Cc1cnc[nH]1)C(=O)N1CCC[C@H]1C(=O)N[C@H](C)C(=O)O [TRV120027] | detected internalization | –
NC(=O)CC[C@@H]1NC(=O)[C@H](Cc2ccccc2)NC(=O)[C@H](Cc2ccc(O)cc2)NC(=O)[C@@H](N)CSSC[C@@H](C(=O)N2CCC[C@H]2C(=O)N[C@@H](CCCN=C(N)N)C(=O)NCC(N)=O)NC(=O)[C@H](CC(N)=O)NC1=O [arginine vasopressin] | – | no increase

— US9096889B2, “Compositions and methods for monitoring transmembrane trafficking” (Promega Corporation, priority 2011, dated 2015)
